Measurements published in patent publication US20260083704A1, “LXR MODULATORS WITH BICYCLIC CORE MOIETY FOR TREATING DYSLIPIDEMIAS” (OrsoBio, Inc., priority 2022, published 2026).

Columns and labels:
[1] = Short term HFD mouse model: plasma and liver exposure; format: in vivo; conditions: HFD mice, 4 h after final dose
Description: (§1) The in vivo transcriptional regulation of several LXR target genes by LXR modulators was assessed in mice.
(§2) For this, C57BL/6J were purchased from Elevage Janvier (Rennes, France) at the age of 8 weeks. After an acclimation period of two weeks, animals were prefed on a high fat diet (HFD) (Ssniff Spezialdiäten GmbH, Germany, Surwit EF D12330 mod, Cat. No. E15771-34), with 60 kcal % from fat plus 1% (w/w) extra cholesterol (Sigma-Aldrich, St. Louis, MO) for 5 days. Animals were maintained on this diet during treatment with LXR modulators. The test compounds were formulated in 0.5% hydroxypropylmethylcellulose (HPMC) and administered in three doses (from 1.5 to 20 mg/kg each) by oral gavage according to the following schedule: on day one, animals received treatment in the morning and the evening (ca. 17:00), on day two animals received the final treatment in the morning after a 4 h fast and were sacrificed 4 h thereafter. Animal work was conducted according to the national guidelines for animal care in Germany.
Upon termination, liver was collected, dipped in ice cold PBS for 30 seconds and cut into appropriate pieces. Pieces were snap frozen in liquid nitrogen and stored at −80° C. For the clinical chemistry analysis from plasma, alanine aminotransferase (ALT, IU/mL), cholesterol (CHOL, mg/dL) and triglycerides (TG, mg/dL) were determined using a fully-automated bench top analyzer (Respons®910, DiaSys Greiner GmbH, Flacht, Germany) with system kits provided by the manufacturer.

[2] = system: LXR target genes (Scd1, Fas, Srebp1) in liver; assay: Short term HFD mouse model: gene expression in liver tissue; format: in vivo; conditions: HFD mice, expression normalized to Tbp; for response vs control in vivo at 20 mg/kg / response vs control in vivo at 10 mg/kg: Mus musculus, 4 h, read-out: Scd1 suppresion compared to vehicle
Description: as §1, §2
Analysis of gene expression in liver tissue. To obtain total RNA from frozen liver tissue, samples (25 mg liver tissue) were first homogenized with RLA buffer (4M guanidin thiocyanate, 10 mM Tris, 0.97% w:v β-mercapto-ethanol). RNA was prepared using a SV 96 total RNA Isolation system (Promega, Madison, Wisconsin, USA) following the manufacturer's instructions. cDNAs were synthesized from 0.8-1 μg of total RNA using All-in-One cDNA Supermix reverse transcriptase (Absource Diagnostics, Munich, Germany). Quantitative PCR was performed and analyzed using Prime time Gene expression master mix (Integrated DNA Technologies, Coralville, Iowa, USA) and a 384-format ABI 7900HT Sequence Detection System (Applied Biosystems, Foster City, USA). The expression of the following genes was analysed: Stearoyl-CoA desaturase1 (Scd1), fatty acid synthase (Fas) and sterol regulatory element-binding protein1 (Srebp1). Specific primer and probe sequences (commercially available) are listed in Table 3. qPCR was conducted at 95° C. for 3 min, followed by 40 cycles of 95° C. for 15 s and 60° C. for 30 s. All samples were run in duplicates from the same RT-reaction. Gene expression was expressed in arbitrary units and normalized relative to the mRNA of the housekeeping gene TATA box binding protein (Tbp) using the comparative Ct method.

[3] = three oral doses of 20 mg/kg over two days
[4] = three oral doses of 10 mg/kg over two days

SMILES	liver exposure 4 h [1, 3]	liver/plasma ratio 4 h [1, 3]	plasma exposure 4 h [1, 3]	Fasn suppression compared to vehicle ([2]; three oral doses of 20 mg/kg)	Srebp1c suppr. compared to vehicle ([2]; three oral doses of 20 mg/kg)	response vs control in vivo at 20 mg/kg ([2]; three oral doses of 20 mg/kg)	liver exposure 4 h [1, 4]	liver/plasma ratio 4 h [1, 4]	plasma exposure 4 h [1, 4]	Srebp1c suppr. compared to vehicle ([2]; three oral doses of 10 mg/kg)	response vs control in vivo at 10 mg/kg ([2]; three oral doses of 10 mg/kg)	Fasn suppression compared to vehicle ([2]; three oral doses of 10 mg/kg)
Cc1ccc(S(=O)(=O)n2c(-c3cccc(C45CCC(C(=O)O)(CC4)CC5)c3)c(-c3ccsc3C#N)c3cc(F)ccc32)cc1 [3/64]	D (>10 μM)	D (>100)	C (100 nM to <300 nM)	B (0.6 to ≤0.9)	B (0.6 to ≤0.9)	< 30%						
N#Cc1ccccc1-c1c(-c2cccc(-c3ccc(C(=O)O)cc3Cl)c2)n(S(=O)(=O)c2ccc(C(F)F)cc2)c2ccc(F)cc12 [11/33]	C (1 μM to ≤10 μM)	C (30 to ≤100)	C (100 nM to <300 nM)	B (0.6 to ≤0.9)		< 30%						
N#Cc1cccc(C#N)c1-c1c(-c2cccc(-c3cc(F)c(C(=O)O)cc3Cl)c2)n(S(=O)(=O)c2ccc(C(F)F)cc2)c2ccc(F)cc12 [11/65]							C (1 μM to ≤10 μM)	C (30 to ≤100)	D (<100 nM)	D (<0.3)	< 30%	
N#Cc1cccc(C#N)c1-c1c(-c2cccc(-c3ccc(C(=O)O)cc3Cl)c2)n(S(=O)(=O)c2ccc(C(F)(F)F)nc2)c2ccc(F)cc12 [11/37]							C (1 μM to ≤10 μM)	C (30 to ≤100)	D (<100 nM)	D (<0.3)	< 30%	
N#Cc1cccnc1-c1c(-c2cccc(-c3ccc(C(=O)O)cc3Cl)c2)n(S(=O)(=O)c2ccc(C(F)F)cc2)c2ccc(F)cc12 [11/26]							C (1 μM to ≤10 μM)	C (30 to ≤100)	C (100 nM to <300 nM)	D (<0.3)	30 to 60%	D (<0.3)
N#Cc1cccc(C#N)c1-c1c(-c2cccc(-c3c(F)cc(C(=O)O)cc3F)c2)n(S(=O)(=O)c2ccc(C(F)F)cc2)c2ccc(F)cc12 [11/53]							C (1 μM to ≤10 μM)	C (30 to ≤100)	D (<100 nM)	D (<0.3)	< 30%	
Cc1ccc(S(=O)(=O)n2c(-c3cccc(-c4ccc(C(=O)O)cc4Cl)c3)c(-c3ccsc3C#N)c3cc(F)ccc32)cc1 [3/48]	C (1 μM to ≤10 μM)	C (30 to ≤100)	D (<100 nM)		D (<0.3)	< 30%						
N#Cc1cccc(C#N)c1-c1c(-c2cccc(-c3ccc(C(=O)NCC(=O)O)cc3Cl)c2)n(S(=O)(=O)c2ccc(C(F)F)cc2)c2ccc(F)cc12 [Compound 21/3]							C (1 μM to ≤10 μM)	D (>100)	D (<100 nM)		< 30%	C (0.3 to ≤0.6)
CN(CCS(=O)(=O)O)C(=O)c1ccc(-c2cccc(-c3c(-c4c(C#N)cccc4C#N)c4cc(F)ccc4n3S(=O)(=O)c3ccc(C(F)F)cc3)c2)c(Cl)c1 [10/2]							D (>10 μM)	B (5 to ≤30)	D (<100 nM)	C (0.3 to ≤0.6)	30 to 60%	
